Measured values published in US10080751B2, “Systems and methods for treating bacterial infection” (priority 2016, dated 2018).
Values after ≈ are worked out from the molar mass of the structure shown. Where two headings read alike, the source gives them in different places.

Assays:
E. coli = experiment: MIC with/without bovine pulmonary surfactant, E. coli; format: cell-based, Escherichia coli; conditions: E. coli ATCC 25922
Experimental: (§1) Clinical isolates were identified by the submitting laboratories and confirmed by JMI Laboratories using standard bacteriologic algorithms and methodologies, including Matrix-Assisted Laser Desorption Ionization-Time Of Flight Mass Spectrometry (MALDI-TOF MS). When necessary, MALDI-TOF MS was performed using the Bruker Daltonics MALDI Biotyper (Billerica, Mass., USA), following manufacturer's instructions. Isolates selected were bacterial species commonly associated with pneumonia. […] 2.2 Susceptibility testing
(§2) Antibacterial susceptibility testing was measured by JMI Labs (North Liberty, Iowa, USA). […] These clinical isolates were collected from US (n=4), Mexico (n=2), and Italy (n=1). Susceptibility testing was performed by broth microdilution in accordance with the Clinical and Laboratory and Standards Institute (CLSI) guidelines M07-A10 (2015) and the standard operating procedures at JMI laboratories. Minimum inhibitory concentrations (MICs) were based on CLSI criteria (2015). There are no published breakpoints for iclaprim. E. coli, K. pneumoniae, M. catarrhalis, E. faecalis, and S. aureus were tested in cation-adjusted Mueller-Hinton broth (CA-MHB). S. pneumoniae were tested in CA-MHB supplemented with 2.5-5% lysed horse blood, and H. influenza were tested in Haemophilus test medium. Quality control and interpretation of results were performed in accordance with CLSI M100-S26 (2016) methods. QC ranges for iclaprim were those approved by CLSI and published in M100-S26 (2016). Iclaprim and comparator antibiotic MIC results were within the CLSI published ranges against E. coli ATCC 25922, E. faecalis ATCC 29212, E. faecalis ATCC 33186, H. influenzae ATCC 49247, K. pneumoniae ATCC 700603 (ESBL phenotype), S. aureus ATCC 29213, and S. pneumoniae ATCC 49619. Isolates were tested with MIC panels (ThermoFisher Scientific, Cleveland, Ohio, USA) of comparator antibiotics (daptomycin and levofloxacin).
(§3) Because bovine pulmonary surfactant can introduce cloudiness to the MIC testing media, antimicrobial growth inhibition was also evaluated using the colorimetric metabolic indicator resazurin (Camlab Ltd., Cambridge, UK). […] S. pneumoniae panels were omitted from resazurin analysis because the color change was obscured by the lysed horse blood present in the test medium. Growth inhibition was then evaluated as a visible color change from blue (no growth) to pink (robust growth) and recorded as a MICRZ value.
(§4) The MICs of iclaprim, levofloxacin, and daptomycin were determined against Gram-positive and Gram-negative isolates.
A new vial of bovine pulmonary surfactant (BPS; Survanta®; Abbott Laboratories, Columbus, Ohio) was utilized for each independent experiment. […] MICs of daptomycin were determined in CAMHB with the Ca^2+ content adjusted to 50 mg/L.

E. faecalis = experiment: MIC with/without bovine pulmonary surfactant, E. faecalis; format: cell-based, Enterococcus faecalis; conditions: for MIC: Enterococcus faecalis
Experimental: as §1, §2, §3, §4
(§5) A new vial of bovine pulmonary surfactant (BPS; Survanta®; Abbott Laboratories, Columbus, Ohio) was utilized for each independent experiment. Each vial was mixed thoroughly and a 100 μL aliquot was spread on an agar plate, which was incubated overnight to confirm sterility. […] The concentration of surfactant was expressed in terms of percent volume of Survanta® suspension, which consisted of phospholipid (25 mg/mL) and surfactant proteins (<1 mg/mL) in 0.9% sodium chloride solution (Goerke, 1998). MICs of daptomycin were determined in CAMHB with the Ca^2+ content adjusted to 50 mg/L.

H. influenzae = experiment: MIC with/without bovine pulmonary surfactant, H. influenzae; format: cell-based, Haemophilus influenzae; conditions: for MIC: Haemophilus influenzae
Experimental: as §1, §2, §3, §4, §5

K. pneumoniae = experiment: MIC with/without bovine pulmonary surfactant, K. pneumoniae; format: cell-based, Klebsiella pneumoniae; conditions: for MIC: Klebsiella pneumoniae
Experimental: as §1, §2, §3, §4, §5

M. catarrhalis = experiment: MIC with/without bovine pulmonary surfactant, M. catarrhalis; format: cell-based, Moraxella catarrhalis; conditions: for MICRZ, Resazurin: +BPS: 2.5% v/v BPS
Experimental: as §1, §2, §3, §4, §5

S. aureus = experiment: MIC with/without bovine pulmonary surfactant, S. aureus; format: cell-based, Staphylococcus aureus; conditions: for MICRZ, Resazurin: +BPS: 2.5% v/v BPS; for MICRZ, Resazurin: no BPS
Experimental: as §1, §2, §3, §4, §5

S. pneumoniae = experiment: MIC with/without bovine pulmonary surfactant, S. pneumoniae; format: cell-based; conditions: Streptococcus pneumoniae
Experimental: as §1, §2, §3, §4, §5

S. aureus strain AH1252 = experiment: Neutropenic rat lung infection model; format: in vivo; conditions: iclaprim 80 mg/kg
Experimental: S. aureus strain AH1252, a thymidine knockout of the MRSA wild type AW6 strain, was utilized for this study. The bacterial strain was diluted in a 2% alginate buffer, which was added dropwise in a ratio of 1:5 into […] to form alginate beads. The alginate beads reduce the efficacy of bacterial clearance similar to that seen in the cystic fibrosis population. A 5.25×10^4 bacterial inoculum was administered to groups of 9 rats, intratracheally, with prepared alginate bacteria suspensions, under isoflurane anesthesia. […] Twelve hours after the last treatment, rats were euthanized and lungs collected for CFU determination.

[1] = tested on: nosocomial pneumonia suspected or confirmed to be caused by Gram-positive pathogens; conditions: intent-to-treat, test of cure visit; vancomycin 1 g IV q12h; cited from earlier work
[2] = S. aureus Clinical Isolate 825189
[3] = SC/BID 3 days, vancomycin 50 mg/kg

With `C[C@H]1COc2c(N3CCN(C)CC3)c(F)cc3c(=O)c(C(=O)O)cn1c23` [Levofloxacin] the “MICRZ, Resazurin: +BPS” value (E. coli; 2.5% v/v BPS) was 0.03 µg/mL, the “MICRZ, Resazurin” value (E. coli; no BPS) was 0.015 µg/mL and the “MICRZ, Resazurin: +BPS” value (E. faecalis; E. faecalis ATCC 29212, 2.5% v/v BPS) was 1 µg/mL. For the same compound, the “MICRZ, Resazurin” value (E. faecalis; E. faecalis ATCC 29212, no BPS) was 1 µg/mL, the “MICRZ, Resazurin: +BPS” value (E. faecalis; E. faecalis ATCC 33186, 2.5% v/v BPS) was 2 µg/mL and the “MICRZ, Resazurin” value (E. faecalis; E. faecalis ATCC 33186, no BPS) was 4 µg/mL. The MIC (E. faecalis; ATCC29212, E. faecalis ATCC 29212, 2.5% v/v BPS, read-out: MIC, CLSI: +BPS) was 1 µg/mL (≈ 2.77 µM), the MIC (E. faecalis; ATCC29212, E. faecalis ATCC 29212, no BPS, read-out: MIC, CLSI) was 1 µg/mL (≈ 2.77 µM) and the MIC (E. faecalis; ATCC33186, E. faecalis ATCC 33186, 2.5% v/v BPS, read-out: MIC, CLSI: +BPS) was 1 µg/mL (≈ 2.77 µM). The MIC (E. faecalis; ATCC33186, E. faecalis ATCC 33186, no BPS, read-out: MIC, CLSI) was 4 µg/mL (≈ 11.1 µM), the “MICRZ, Resazurin: +BPS” value (H. influenzae; H. influenzae ATCC 49247, 2.5% v/v BPS) was 0.03 µg/mL and the “MICRZ, Resazurin” value (H. influenzae; H. influenzae ATCC 49247, no BPS) was 0.03 µg/mL. For the same compound, the “MICRZ, Resazurin: +BPS” value (H. influenzae; H. influenzae Clinical Isolate 824704, 2.5% v/v BPS) was 0.015 µg/mL, the “MICRZ, Resazurin” value (H. influenzae; H. influenzae Clinical Isolate 824704, no BPS) was 0.015 µg/mL and the MIC (H. influenzae; ATCC49247, H. influenzae ATCC 49247, 2.5% v/v BPS, read-out: MIC, CLSI: +BPS) was 0.03 µg/mL (≈ 0.083 µM). For the same compound, the MIC (H. influenzae; ATCC49247, H. influenzae ATCC 49247, no BPS, read-out: MIC, CLSI) was 0.03 µg/mL (≈ 0.083 µM), the MIC (H. influenzae; H. influenzae Clinical Isolate 824704, 2.5% v/v BPS, read-out: MIC, CLSI: +BPS) was 0.015 µg/mL (≈ 0.0415 µM) and the MIC (H. influenzae; H. influenzae Clinical Isolate 824704, no BPS, read-out: MIC, CLSI) was 0.015 µg/mL (≈ 0.0415 µM). For the same compound, the “MICRZ, Resazurin: +BPS” value (K. pneumoniae; K. pneumoniae ATCC 700603, 2.5% v/v BPS) was 1 µg/mL, the “MICRZ, Resazurin” value (K. pneumoniae; K. pneumoniae ATCC 700603, no BPS) was 1 µg/mL and the “MICRZ, Resazurin: +BPS” value (K. pneumoniae; K. pneumoniae Clinical Isolate 858055, 2.5% v/v BPS) was 0.06 µg/mL. The “MICRZ, Resazurin” value (K. pneumoniae; K. pneumoniae Clinical Isolate 858055, no BPS) was 0.06 µg/mL, the MIC (K. pneumoniae; ATCC700603, K. pneumoniae ATCC 700603, 2.5% v/v BPS, read-out: MIC, CLSI: +BPS) was 1 µg/mL (≈ 2.77 µM) and the MIC (K. pneumoniae; ATCC700603, K. pneumoniae ATCC 700603, no BPS, read-out: MIC, CLSI) was 1 µg/mL (≈ 2.77 µM). The MIC (K. pneumoniae; K. pneumoniae Clinical Isolate 858055, 2.5% v/v BPS, read-out: MIC, CLSI: +BPS) was 0.12 µg/mL (≈ 0.332 µM), the MIC (K. pneumoniae; K. pneumoniae Clinical Isolate 858055, no BPS, read-out: MIC, CLSI) was 0.06 µg/mL (≈ 0.166 µM) and the “MICRZ, Resazurin: +BPS” value (M. catarrhalis; M. catarrhalis Clinical Isolate 893806) was 0.06 µg/mL. For the same compound, the “MICRZ, Resazurin” value (M. catarrhalis; M. catarrhalis Clinical Isolate 893806, no BPS) was 0.06 µg/mL, the “MICRZ, Resazurin: +BPS” value (M. catarrhalis; M. catarrhalis Clinical Isolate 893807) was 0.06 µg/mL and the “MICRZ, Resazurin” value (M. catarrhalis; M. catarrhalis Clinical Isolate 893807, no BPS) was 0.06 µg/mL. The MIC (M. catarrhalis; Moraxella catarrhalis, M. catarrhalis Clinical Isolate 893806, no BPS) was 0.06 µg/mL (≈ 0.166 µM), the “MICRZ, Resazurin: +BPS” value (S. aureus; S. aureus ATCC 29213) was 0.12 µg/mL and the “MICRZ, Resazurin” value (S. aureus; S. aureus ATCC 29213) was 0.25 µg/mL. For the same compound, the “MICRZ, Resazurin: +BPS” value (S. aureus; [2]) was 0.25 µg/mL, the “MICRZ, Resazurin” value (S. aureus; [2]) was 0.25 µg/mL and the MIC (S. pneumoniae; ATCC49619, S. pneumoniae ATCC 49619, 2.5% v/v BPS, read-out: MIC, CLSI: +BPS) was 1 µg/mL (≈ 2.77 µM). It also gave an MIC (S. pneumoniae; ATCC49619, S. pneumoniae ATCC 49619, no BPS, read-out: MIC, CLSI) of 1 µg/mL (≈ 2.77 µM), an MIC (S. pneumoniae; S. pneumoniae Clinical Isolate 818757, 2.5% v/v BPS, read-out: MIC, CLSI: +BPS) of 1 µg/mL (≈ 2.77 µM) and an MIC (S. pneumoniae; S. pneumoniae Clinical Isolate 818757, no BPS, read-out: MIC, CLSI) of 1 µg/mL (≈ 2.77 µM). For the same compound, the MIC (S. pneumoniae; S. pneumoniae Clinical Isolate 825175, 2.5% v/v BPS, read-out: MIC, CLSI: +BPS) was 1 µg/mL (≈ 2.77 µM) and the MIC (S. pneumoniae; S. pneumoniae Clinical Isolate 825175, no BPS, read-out: MIC, CLSI) was 1 µg/mL (≈ 2.77 µM).
In the case of `CN[C@H](CC(C)C)C(=O)N[C@H]1C(=O)N[C@@H](CC(N)=O)C(=O)N[C@H]2C(=O)N[C@H]3C(=O)N[C@H](C(=O)N[C@H](C(=O)O)c4cc(O)cc(O)c4-c4cc3ccc4O)[C@H](O)c3ccc(c(Cl)c3)Oc3cc2cc(c3O[C@@H]2O[C@H](CO)[C@@H](O)[C@H](O)[C@H]2O[C@H]2C[C@](C)(N)[C@H](O)[C@H](C)O2)Oc2ccc(cc2Cl)[C@H]1O` [Vancomycin], the “72 hour lungs (CFU/gram of lung) log10CFU/Lung” value (S. aureus strain AH1252; [3]) is reported as 5.30 log10CFU/Lung, the “Change in CFUs from 2 hr.” value (S. aureus strain AH1252; [3]) is reported as 2.18 log 10 CFU and the “Survival >60 hrs” value (S. aureus strain AH1252; SC/BID 3 days, vancomycin 50 mg/kg, 9 rats) is reported as 8/9. The “survival compared to the infection controls” value (S. aureus strain AH1252; vancomycin 50 mg/kg SC/BID) was “increased survival”, the “Change in CFUs from 72 hr.” value (S. aureus strain AH1252; vs 72 hr infection controls, vancomycin 50 mg/kg SC/BID) was −3.38 log 10 CFU and the cure rate [1] was 52.2%.
